Consider 14 compounds from the SangsterLogP compilation.

The data set in a line: method code SF-HPLC, from DOI: 10.1002/jps.2600810814, PMID: 1403725.

Usually logP stands for the decadic logarithm of the partition coefficient of the neutral form, usually between octanol and water. Lower therefore signals a more hydrophilic compound.

`CCN(N=O)C(C)C` registered a logP of 1. Under `CCN(CC)N=O` stands 0.61.

In the case of `CCCCN(CCCC)N=O`, the logP is 2.73. Under `CCCCN(CC)N=O` stands 1.67. Under `CN(C)N=O` stands -0.38. In turn, `CC(C)CN(CC(C)C)N=O` displayed a logP of 2.39. For `CCCCCN(CCCCC)N=O` the value was 3.91; for `CCCN(CCC)N=O`, 1.61. Under `CCCN(C)N=O` stands 0.61; under `CN(N=O)C(C)(C)C`, 0.86; under `CCCCN(C)N=O`, 1.12. In turn, `CCN(C)N=O` came in with a log partition coefficient (logP) of 0.08.

As for `CC(C)N(N=O)C(C)C`, the logP amounted to 1.48. Under `CCCCN(CCC)N=O` stands 2.13.
